The test concerns the target human adenosine A2b receptor (Homo sapiens (Human), UniProt P29275). Briefly: Cellular in vitro reporter gene test for A2b receptor activity (CHO-K1, CRE-luciferase, NECA stimulation). The class given is cell-based. The note with it: recombinant CHO-K1 cell line, CRE-luciferase reporter, antagonism of EC50 concentration of NECA; in some cases means of several determinations, rounded to two significant figures; read-out: A2b receptor IC50. The gist of the method: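 CHO-K1 cells with CRE-driven luciferase; antagonists co-incubated with NECA at its EC50, determined in a pre-experiment on each test day. Luciferase read by luminescence 3 h after NECA addition.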
In general terms: In a reporter assay the amount or activity of a reporter protein is the signal.

Our source for the IC50 values is patent publication US10428083B2, “Heterocyclylmethyl-thienouracile as antagonists of the adenosine-A2B-receptor” (BAYER PHARMA AKTIENGESELLSCHAFT, priority 2015, dated 2019).

Chain of human adenosine A2b receptor (P29275 whole entry): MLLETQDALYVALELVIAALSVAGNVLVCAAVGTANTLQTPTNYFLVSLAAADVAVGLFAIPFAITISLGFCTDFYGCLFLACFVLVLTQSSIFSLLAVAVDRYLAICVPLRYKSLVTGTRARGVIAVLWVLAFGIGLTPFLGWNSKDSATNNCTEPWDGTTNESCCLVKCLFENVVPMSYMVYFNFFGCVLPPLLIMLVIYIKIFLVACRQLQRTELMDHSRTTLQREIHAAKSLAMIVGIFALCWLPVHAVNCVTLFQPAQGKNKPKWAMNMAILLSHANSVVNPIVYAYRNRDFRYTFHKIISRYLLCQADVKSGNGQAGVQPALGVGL

As a reminder, the IC50 is the concentration needed to halve the response being measured. `COCCn1c(=O)n(CC(F)(F)F)c(=O)c2c(C)c(Cn3[nH]ccc3=O)sc21` [Example 283, 1-(2-Methoxyethyl)-5-methyl-6-[(5-oxo-2,5-dihydro-1H-pyrazol-1-yl)methyl]-3-(2,2,2-trifluoroethyl)thieno[2,3-d]pyrimidine-2,4(1H,3H)-dione]: the IC50 was 79 nM.
Next, `CCn1c(=O)c2c(C)c(Cn3cc[nH]c3=O)sc2n(CC2CCCO2)c1=O` (racemic) [Example 242, 3-Ethyl-5-methyl-6-[(2-oxo-2,3-dihydro-1H-imidazol-1-yl)methyl]-1-(tetrahydrofuran-2-ylmethyl)thieno[2,3-d]pyrimidine-2,4(1H,3H)-dione]: 1.4 nM; `Cc1c(CN2CCNC2=NC#N)sc2c1c(=O)n(CC(C)(C)C)c(=O)n2CC1CCCO1` (single isomer, unassigned) [Example 448, [1-{[3-(2,2-Dimethylpropyl)-5-methyl-2,4-dioxo-1-(tetrahydrofuran-2-ylmethyl)-1,2,3,4-tetrahydrothieno[2,3-d]pyrimidin-6-yl]methyl}imidazolidin-2-ylidene]cyanamide]: 17 nM; `CCn1c(=O)c2c(C)c(CN3CCNC3=O)sc2n(CC2CCCO2)c1=O` (single isomer, unassigned; enantiomer 1) [Example 69, 3-Ethyl-5-methyl-6-[(2-oxoimidazolidin-1-yl)methyl]-1-(tetrahydrofuran-2-ylmethyl)thieno[2,3-d]pyrimidine-2,4(1H,3H)-dione (Enantiomer 1)]: 9.8 nM.
Next, `COCCn1c(=O)c2c(C)c(CN3CCNC(=O)C3=O)sc2n(CCC(F)(F)F)c1=O` [Example 276, 6-[(2,3-Dioxopiperazin-1-yl)methyl]-3-(2-methoxyethyl)-5-methyl-1-(3,3,3-trifluoropropyl)thieno[2,3-d]pyrimidine-2,4(1H,3H)-dione]: 9.9 nM; `CCn1c(=O)c2c(C)c(CN3CCNC3=S)sc2n(CCOC2CC2)c1=O` [Example 138, 1-[2-(Cyclopropyloxy)ethyl]-3-ethyl-5-methyl-6-[(2-thioxoimidazolidin-1-yl)methyl]thieno[2,3-d]pyrimidine-2,4(1H,3H)-dione]: 12 nM; `Cc1c(CN2CCNC2=O)sc2c1c(=O)n(CC(C)C)c(=O)n2CCCF` [Example 192, 1-(3-Fluoropropyl)-3-isobutyl-5-methyl-6-[(2-oxoimidazolidin-1-yl)methyl]thieno[2,3-d]pyrimidine-2,4(1H,3H)-dione]: 3.2 nM.
Next, `CCC(C)n1c(=O)c2c(C)c(CN3CCNC3=O)sc2n(CCOC)c1=O` (racemic) [Example 190, 3-sec-Butyl-1-(2-methoxyethyl)-5-methyl-6-[(2-oxoimidazolidin-1-yl)methyl]thieno[2,3-d]pyrimidine-2,4(1H,3H)-dione]: 38 nM; `Cc1c(CN2CCNC2=S)sc2c1c(=O)n(CC(F)(F)F)c(=O)n2CC1CCO1` (single isomer, unassigned) [Example 155, 5-Methyl-1-(oxetan-2-ylmethyl)-6-[(2-thioxoimidazolidin-1-yl)methyl]-3-(2,2,2-trifluoroethyl)thieno[2,3-d]pyrimidine-2,4(1H,3H)-dione]: 26 nM; `COCCn1c(=O)c2c(C)c(CN3CCNC(=O)C3=O)sc2n(CC2CCO2)c1=O` (racemic) [Example 400, 6-[(2,3-Dioxopiperazin-1-yl)methyl]-3-(2-methoxyethyl)-5-methyl-1-(oxetan-2-ylmethyl)thieno[2,3-d]pyrimidine-2,4(1H,3H)-dione]: 320 nM.
With `CCn1c(=O)c2c(C)c(CN3CCNC3=NC(=O)OC)sc2n(CC2CCO2)c1=O` (single isomer, unassigned) [Example 372, Methyl [1-{[3-ethyl-5-methyl-1-(oxetan-2-ylmethyl)-2,4-dioxo-1,2,3,4-tetrahydrothieno[2,3-d]pyrimidin-6-yl]methyl}imidazolidin-2-ylidene]carbamate], the IC50 came out at 27 nM.
Regarding `Cc1c(CN2CCNC2=O)sc2c1c(=O)n(CC(F)F)c(=O)n2CC1COC1` [Example 222, 3-(2,2-Difluoroethyl)-5-methyl-1-(oxetan-3-ylmethyl)-6-[(2-oxoimidazolidin-1-yl)methyl]thieno[2,3-d]pyrimidine-2,4(1H,3H)-dione], the IC50 turned out to be 13 nM.
To `COCCn1c(=O)n(CC2CC2(F)F)c(=O)c2c(C)c(CN3CCNC3=O)sc21` (racemic) [Example 323, 3-[(2,2-Difluorocyclopropyl)methyl]-1-(2-methoxyethyl)-5-methyl-6-[(2-oxoimidazolidin-1-yl)methyl]thieno[2,3-d]pyrimidine-2,4(1H,3H)-dione] belongs 34 nM.
To `COCCn1c(=O)c2c(C)c(Cn3[nH]ccc3=O)sc2n(CCOC)c1=O` [Example 288, 1,3-Bis(2-methoxyethyl)-5-methyl-6-[(5-oxo-2,5-dihydro-1H-pyrazol-1-yl)methyl]thieno[2,3-d]pyrimidine-2,4(1H,3H)-dione] belongs 140 nM; to `Cc1c(CN2CCNC2=NC#N)sc2c1c(=O)n(CC(F)(F)F)c(=O)n2CC1CCO1` (single isomer, unassigned) [Example 450, [1-{[5-Methyl-1-(oxetan-2-ylmethyl)-2,4-dioxo-3-(2,2,2-trifluoroethyl)-1,2,3,4-tetrahydrothieno[2,3-d]pyrimidin-6-yl]methyl}imidazolidin-2-ylidene]cyanamide], 14 nM; to `Cc1c(CN2CCNC2=S)sc2c1c(=O)n(CC(C)C)c(=O)n2CC1CCO1` (racemic) [Example 146, 3-Isobutyl-5-methyl-1-(oxetan-2-ylmethyl)-6-[(2-thioxoimidazolidin-1-yl)methyl]thieno[2,3-d]pyrimidine-2,4(1H,3H)-dione], 11 nM.
Next, `COCCn1c(=O)n(CCc2ccccc2)c(=O)c2c(C)c(CN3CCNC3=O)sc21` [Example 176, 1-(2-Methoxyethyl)-5-methyl-6-[(2-oxoimidazolidin-1-yl)methyl]-3-(2-phenylethyl)thieno[2,3-d]pyrimidine-2,4(1H,3H)-dione]: 1.5 nM.
With `COCCn1c(=O)n(CCc2ccccc2)c(=O)c2c(C(F)(F)F)c(CN3CCCC3=O)sc21` [Example 5, 1-(2-Methoxyethyl)-6-[(2-oxopyrrolidin-1-yl)methyl]-3-(2-phenylethyl)-5-(trifluoromethyl)thieno[2,3-d]pyrimidine-2,4(1H,3H)-dione], the IC50 was 8.4 nM.
To `CC#CCn1c(=O)c2c(C)c(CN3CCNC3=O)sc2n(CCOC)c1=O` [Example 317, 3-(But-2-yn-1-yl)-1-(2-methoxyethyl)-5-methyl-6-[(2-oxoimidazolidin-1-yl)methyl]thieno[2,3-d]pyrimidine-2,4(1H,3H)-dione] belongs 25 nM; to `COC(C)Cn1c(=O)c2c(C)c(CN3CCNC3=NC#N)sc2n(CCC(F)(F)F)c1=O` (single isomer, unassigned) [Example 455, [1-{[3-(2-Methoxypropyl)-5-methyl-2,4-dioxo-1-(3,3,3-trifluoropropyl)-1,2,3,4-tetrahydrothieno[2,3-d]pyrimidin-6-yl]methyl}imidazolidin-2-ylidene]cyanamide], 3.6 nM.
